According to patent publication US10681909B2, “Herbicidal triazoles” (FMC Corporation, priority 2014, dated 2020):

Experiments:
morningglory = assay: Test C preemergence; type: in vivo, Ipomoea coccinea; conditions: for Plant response rating (scale of 0 to 100 where 0 is no effect and 100 is complete control): Morningglory, preemergence; for Morningglory plant response rating (0 to 100): Preemergence, visual rating after 13 to 15 d
Outline: (§1)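 Test chemicals in a non-phytotoxic solvent mixture with surfactant were applied to pots of plants at 2 to 18 cm (1- to 4-leaf stage) for postemergence treatment, grown in a peat-based medium with vermiculite, starter nutrients and dolomitic limestone. Preemergence treatment was to seeds freshly planted in loam soil mixed with sand.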

barley, winter = assay: Test D preemergence; type: in vivo, Hordeum vulgare; conditions: scale 0 to 100
Description: (§2) Seeds of plant species selected from bluegrass (annual bluegrass, Poa annua), blackgrass (Alopecurus myosuroides), canarygrass (Phalaris minor), chickweed (common chickweed, Stellaria media), galium (catchweed bedstraw, Galium aparine), bromegrass, down (downy bromegrass, Bromus tectorum), Russian thistle (Salsola kali), field poppy (Papaver rhoeas), field violet (Viola arvensis), foxtail, green (green foxtail, Setaria viridis), deadnettle (henbit deadnettle, Lamium amplexicaule), ryegrass, Ital. (Italian ryegrass, Lolium multiflorum), kochia (Kochia scoparia), lambsquarters (Chenopodium album), oilseed rape (Brassica napus), pigweed (Amaranthus retroflexus), chamomile (scentless chamomile, Matricaria inodora), speedwell (bird's-eye speedwell, Veronica persica), barley, spring (spring barley, Hordeum vulgare), wheat, spring (spring wheat, Triticum aestivum), buckwheat, wild (wild buckwheat, Polygonum convolvulus), wild mustard (Sinapis arvensis), oat, wild (wild oat, Avena fatua), radish, wild (wild radish, Raphanus raphanistrum), […]), barley, winter (winter barley, Hordeum vulgare), and wheat, winter (winter wheat, Triticum aestivum) were planted into a silt loam soil and treated preemergence with test chemicals formulated in a non-phytotoxic solvent mixture which included a surfactant. At the same time, these species were planted in pots containing Sunshine Redi-Earth® planting medium comprising spaghnum peat moss, vermiculite, starter nutrients and dolomitic limestone and treated with postemergence applications of the test chemicals formulated in the same manner. Plants ranged in height from 2 to 18 cm (1- to 4-leaf stage). Treated plants and controls were maintained in a controlled growth environment for 14 to 21 d after which time all species were compared to controls and visually evaluated. […] A dash (-) response means no test result.

barley, spring = assay: Test D preemergence; type: in vivo, Hordeum vulgare; conditions: scale 0 to 100
Description: as §2

wild mustard [1] = assay: Test D postemergence; type: in vivo, Sinapis arvensis; conditions: scale 0 to 100
Description: as §2

velvetleaf [2] = assay: Test A preemergence; type: in vivo, Abutilon theophrasti; conditions: Abutilon theophrasti, pre-emergence, 240 h, 0 to 100 scale (0 no effect, 100 complete control), read-out: Plant response rating, Velvetleaf
Outline: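 For preemergence, seeds were sown in a loam soil-sand blend and given a directed soil spray of test chemical in a non-phytotoxic solvent mixture with surfactant. For postemergence, plants in pots of the same blend were sprayed with the same formulation at the one- to two-leaf stage, 2 to 10 cm tall.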

velvetleaf [3] = assay: Test C preemergence; type: in vivo, Abutilon theophrasti; conditions: for Velvetleaf plant response rating (0 to 100): Preemergence, visual rating after 13 to 15 d
Outline: as §1

speedwell = assay: Test D postemergence; type: in vivo, Veronica persica; conditions: scale 0 to 100
Description: as §2

oat, wild = assay: Test D postemergence; type: in vivo, Avena fatua; conditions: scale 0 to 100
Description: as §2

wild mustard [4] = assay: Test D preemergence; type: in vivo, Sinapis arvensis; conditions: scale 0 to 100
Description: as §2

pigweed = assay: Test D preemergence; type: in vivo, Amaranthus retroflexus; conditions: scale 0 to 100
Description: as §2

lambsquarters = assay: Test C preemergence; type: in vivo, Chenopodium album; conditions: for Plant response rating (scale of 0 to 100 where 0 is no effect and 100 is complete control): Lambsquarters, preemergence; for Lambsquarters plant response rating (0 to 100): Preemergence, visual rating after 13 to 15 d
Outline: as §1

chamomile = assay: Test D postemergence; type: in vivo, Matricaria inodora; conditions: scale 0 to 100
Description: as §2

bromegrass, down [5] = assay: Test D postemergence; type: in vivo, Bromus tectorum; conditions: scale 0 to 100
Description: as §2

bromegrass, down [6] = assay: Test D preemergence; type: in vivo, Bromus tectorum; conditions: scale 0 to 100
Description: as §2

SMILES: CCc1nc(-c2ccc(C(F)(F)F)cc2)nn1Cc1ccnc(C(F)(F)F)c1 [Compound 1, 4-[[5-ethyl-3-[4-(trifluoromethyl)phenyl]-1H-1,2,4-triazol-1-yl]methyl]-2-(trifluoromethyl)pyridine]
- Plant response rating (scale of 0 to 100 where 0 is no effect and 100 is complete control) (morningglory; 125 g ai/ha): 55
- Plant response rating (scale of 0 to 100 where 0 is no effect and 100 is complete control) (morningglory; 250 g ai/ha): 90
- Morningglory plant response rating (0 to 100) (morningglory; 31 g ai/ha): 20
- Morningglory plant response rating (0 to 100) (morningglory; 62 g ai/ha): 55
- Plant response rating: Barley, Winter (barley, winter; 31 g ai/ha): 0
- Plant response rating: Barley, Winter (barley, winter; 62 g ai/ha): 5
- Plant response rating: Barley, Winter (barley, winter; 125 g ai/ha): 10
- Plant response rating: Barley, Winter (barley, winter; 250 g ai/ha): 20
- Plant response rating: Barley, Spring (barley, spring; 31 g ai/ha): 0
- Plant response rating: Barley, Spring (barley, spring; 62 g ai/ha): 0
- Plant response rating: Barley, Spring (barley, spring; 125 g ai/ha): 0
- Plant response rating: Barley, Spring (barley, spring; 250 g ai/ha): 5
- Plant response rating: Mustard, Wild (wild mustard [1]; 31 g ai/ha): 100
- Plant response rating: Mustard, Wild (wild mustard [1]; 62 g ai/ha): 100
- Plant response rating: Mustard, Wild (wild mustard [1]; 125 g ai/ha): 100
- Plant response rating: Mustard, Wild (wild mustard [1]; 250 g ai/ha): 100
- pest or weed control at 125 g/ha (velvetleaf [2]; 125 g ai/ha): 30%
- pest or weed control at 500 g/ha (velvetleaf [2]; 500 g ai/ha, approx. 10 d): 100%
- Velvetleaf plant response rating (0 to 100) (velvetleaf [3]; 31 g ai/ha): 15
- Velvetleaf plant response rating (0 to 100) (velvetleaf [3]; 62 g ai/ha): 30
- Plant response rating (scale of 0 to 100 where 0 is no effect and 100 is complete control) (velvetleaf [3]; Velvetleaf, preemergence, 250 g ai/ha): 75
- Plant response rating: Speedwell (speedwell; 31 g ai/ha): 100
- Plant response rating: Speedwell (speedwell; 62 g ai/ha): 100
- Plant response rating: Speedwell (speedwell; 125 g ai/ha): 100
- Plant response rating: Speedwell (speedwell; 250 g ai/ha): 100
- Plant response rating: Oat, Wild (oat, wild; 31 g ai/ha): 25
- Plant response rating: Oat, Wild (oat, wild; 62 g ai/ha): 30
- Plant response rating: Oat, Wild (oat, wild; 125 g ai/ha): 35
- Plant response rating: Oat, Wild (oat, wild; 250 g ai/ha): 45
- Plant response rating: Mustard, Wild (wild mustard [4]; 62 g ai/ha): 100
- Plant response rating: Mustard, Wild (wild mustard [4]; 125 g ai/ha): 100
- Plant response rating: Mustard, Wild (wild mustard [4]; 250 g ai/ha): 100
- Plant response rating: Pigweed (pigweed; 62 g ai/ha): 100
- Plant response rating: Pigweed (pigweed; 125 g ai/ha): 100
- Plant response rating: Pigweed (pigweed; 250 g ai/ha): 100
- Plant response rating (scale of 0 to 100 where 0 is no effect and 100 is complete control) (lambsquarters; 125 g ai/ha): 98
- Plant response rating (scale of 0 to 100 where 0 is no effect and 100 is complete control) (lambsquarters; 250 g ai/ha): 98
- Lambsquarters plant response rating (0 to 100) (lambsquarters; 31 g ai/ha): 90
- Lambsquarters plant response rating (0 to 100) (lambsquarters; 62 g ai/ha): 98
- Plant response rating: Chamomile (chamomile; 31 g ai/ha): 25
- Plant response rating: Chamomile (chamomile; 62 g ai/ha): 35
- Plant response rating: Chamomile (chamomile; 125 g ai/ha): 55
- Plant response rating: Chamomile (chamomile; 250 g ai/ha): 65
- Plant response rating: Bromegrass, Down (bromegrass, down [5]; 31 g ai/ha): 15
- Plant response rating: Bromegrass, Down (bromegrass, down [5]; 62 g ai/ha): 20
- Plant response rating: Bromegrass, Down (bromegrass, down [5]; 125 g ai/ha): 25
- Plant response rating: Bromegrass, Down (bromegrass, down [5]; 250 g ai/ha): 35
- Plant response rating: Bromegrass, Down (bromegrass, down [6]; 31 g ai/ha): 0
- Plant response rating: Bromegrass, Down (bromegrass, down [6]; 62 g ai/ha): 0
- Plant response rating: Bromegrass, Down (bromegrass, down [6]; 125 g ai/ha): 10
- Plant response rating: Bromegrass, Down (bromegrass, down [6]; 250 g ai/ha): 10
